Measurements: patent US7482351B2, “4-pyrimidineamine compounds and their uses as anti-proliferative agents” (Rigel Pharmaceuticals, Inc., priority 2004, dated 2009)

Columns and labels:
Type in all cases: cell-based
[1] = tested on: A549 (lung carcinoma) cells; test: in vitro inhibition of A549 cells
Procedure: (§1) Various exemplary 5-fluoro-4-pyrmidineamine compounds (illustrated in TABLE 1, infra) were synthesized as described herein and tested for their ability to inhibit A549 (lung carcinoma), DLD-1 (colorectal adenocarcinoma), H1299 (non small cell lung carcinoma), HCT116 (colorectal carcinoma), HELA (cervical adenocarcinoma) and/or U2OS (bone osterosarcoma) cells in vitro. […] A blank indicates the particular compound was […].

[2] = tested on: H1299 (non small cell lung carcinoma) cells; test: in vitro inhibition of H1299 cells
Procedure: as §1

[3] = tested on: DLD-1 (colorectal adenocarcinoma) cells; test: in vitro inhibition of DLD-1 cells; details: DLD-1 (colorectal adenocarcinoma) cells in vitro
Procedure: as §1

[4] = tested on: U2OS (bone osterosarcoma) cells; test: in vitro inhibition of U2OS cells
Procedure: as §1

[5] = tested on: HCT116 (colorectal carcinoma) cells; test: in vitro inhibition of HCT116 cells
Procedure: as §1

[6] = tested on: HELA (cervical adenocarcinoma) cells; test: in vitro inhibition of HELA cells
Procedure: as §1

[7] = tested on: Miapaca2 (pancreatic carcinoma); test: 9-point anti-proliferation assay, Miapaca2; details: Miapaca2, 9-point anti-proliferation assay
HCT116 = test: 9-point anti-proliferation assay, HCT116; details: HCT116, 9-point anti-proliferation assay
[8] = tested on: Colo205 (colorectal adenocarcinoma); test: 9-point anti-proliferation assay, Colo205; details: Colo205, 9-point anti-proliferation assay
A549 = test: 9-point anti-proliferation assay, A549; details: A549, 9-point anti-proliferation assay
[9] = tested on: MDA-MB-231 (estrogen independent breast adenocarcinoma); test: additional cell line MDA-MB-231; details: MDA-MB-231 cell line
Procedure: (§2) Compound 1 was tested against the following additional cell lines: ACHN (renal cell adenocarcimona), JAR (placental choriocarcinoma), MCF7 (estrogen-dependent breast adenocarcinoma), MDA-MB-231 (estrogen independent breast adenocarcinoma), SKMEL28 (human melanoma) and SKMEL5 (human melanoma). In all cases, the IC50 was less than 1 μM.

[10] = tested on: MCF7 (estrogen-dependent breast adenocarcinoma); test: additional cell line MCF7
Procedure: as §2

SKMEL5 (human melanoma) = test: additional cell line SKMEL5
Procedure: as §2

[11] = tested on: JAR (placental choriocarcinoma); test: additional cell line JAR
Procedure: as §2

SKMEL28 (human melanoma) = test: additional cell line SKMEL28
Procedure: as §2

[12] = tested on: ACHN (renal cell adenocarcimona); test: additional cell line ACHN
Procedure: as §2

Molecule | IC50 [1] [nM] | IC50 [2] [nM] | other results
COc1c(Cl)cc(N(C)c2nc(Cl)ncc2F)cc1Cl [Compound 5] | 1000 to 10000 | ≤ 10000 | 
CN(c1ccc2c(c1)OCCO2)c1nc(-c2ccc3c(c2)OCO3)ncc1F [Compound 21, N4-(3,4-Ethylenedioxyphenyl)-5-fluoro-N-4-methyl-2-(3,4-methylenedioxyphenyl)-4-pyrimidineamine] | ≤ 10000 | 1000 to 10000 | IC50 [3]: ≤ 20000 nM; IC50 [4]: ≤ 20000 nM; IC50 [5]: ≤ 20000 nM; IC50 [6]: ≤ 20000 nM
CN(c1ccc2c(c1)OCCO2)c1nc(-c2ccsc2)ncc1F [Compound 25, N4-(3,4-Ethylenedioxyphenyl)-5-fluoro-N-4-methyl-2-(3-thienyl)-4-pyrimidineamine] | ≤ 1000 | ≤ 1000 | IC50 [3]: ≤ 1000 nM; IC50 [7]: < 1000 nM; IC50 (HCT116): < 1000 nM; IC50 [8]: < 1000 nM; IC50 [4]: ≤ 1000 nM; IC50 (A549): < 1000 nM; IC50 [5]: ≤ 1000 nM; IC50 [6]: ≤ 1000 nM
COc1ccc(N(C)c2nc(Cl)ncc2F)cc1OC [Compound 2] | ≤ 1000 | ≤ 1000 | 
CN(c1ccc2c(c1)OCCO2)c1nc(-c2ccco2)ncc1F [Compound 22, N4-(3,4-Ethylenedioxyphenyl)-5-fluoro-2-(2-furyl)-N-4-methyl-4-pyrimidineamine] | ≤ 1000 | ≤ 1000 | IC50 [3]: ≤ 10000 nM; IC50 [4]: ≤ 10000 nM; IC50 [5]: ≤ 10000 nM; IC50 [6]: ≤ 10000 nM
N4-(3,4-Ethylenedioxyphenyl)-5-fluoro-2-(3-hydroxyphenyl)-N-4-methyl-4-pyrimidineamine [Compound 19] | ≤ 10000 | 1000 to 10000 | 
Cc1ccc(-c2ncc(F)c(N(C)c3ccc4c(c3)OCCO4)n2)s1 [Compound 33, N4-(3,4-Ethylenedioxyphenyl)-5-fluoro-N-4-methyl-2-(5-methyl-2-thienyl)-4-pyrimidineamine] | ≤ 10000 | 1000 to 10000 | 
COc1ccc(-c2ncc(F)c(N(C)c3ccc4c(c3)OCCO4)n2)cc1OC [Compound 20, N4-(3,4-Ethylenedioxyphenyl)-2-(3,4-dimethoxyphenyl)-5-fluoro-N-4-methyl-4-pyrimidineamine] | > 20000 | > 20000 | IC50 [3]: > 20000 nM; IC50 [4]: > 20000 nM; IC50 [5]: > 20000 nM; IC50 [6]: > 20000 nM
CN(c1ccc2c(c1)OCCO2)c1nc(-c2cccc(N)c2)ncc1F [Compound 23, 2-(3-Aminophenyl)-N-4-(3,4-ethylenedioxyphenyl)-5-fluoro-N-4-methyl-4-pyrimidineamine] | ≤ 1000 | ≤ 1000 | IC50 [3]: ≤ 10000 nM; IC50 [4]: ≤ 10000 nM; IC50 [5]: ≤ 10000 nM; IC50 [6]: ≤ 10000 nM
Cc1cscc1-c1ncc(F)c(N(C)c2ccc3c(c2)OCCO3)n1 [Compound 34, N4-(3,4-Ethylenedioxyphenyl)-5-fluoro-N-4-methyl-2-(4-methyl-3-thienyl)-4-pyrimidineamine] | ≤ 1000 | ≤ 1000 | 
CN(c1ccc2c(c1)OCCO2)c1nc(-c2ccc[nH]2)ncc1F [Compound 31, N4-(3,4-Ethylenedioxyphenyl)-5-fluoro-N-4-methyl-2-(1H-pyrrol-2-yl)-4-pyrimidineamine] | ≤ 1000 | ≤ 1000 | IC50 [3]: ≤ 1000 nM; IC50 [4]: ≤ 1000 nM; IC50 [5]: ≤ 1000 nM; IC50 [6]: ≤ 1000 nM
COc1cc(N(C)c2nc(Cl)ncc2F)ccc1Cl [Compound 6] | > 20000 | > 20000 | 
CN(c1ccc2c(c1)OCCO2)c1nc(-c2cc3ccccc3s2)ncc1F [Compound 35, 2-(Benzothiophen-2-yl)-N-4-(3,4-ethylenedioxyphenyl)-5-fluoro-N-4-methyl-4-pyrimidineamine] | > 20000 | > 20000 | 
CN(c1ccc2c(c1)OCCO2)c1nc(-c2ccccc2)ncc1F [Compound 18, N4-(3,4-Ethylenedioxyphenyl)-5-fluoro-N-4-methyl-2-(phenyl)-4-pyrimidineamine] | ≤ 1000 | ≤ 1000 | 
CN(c1ccc2c(c1)OCCO2)c1nc(-c2ccoc2)ncc1F [Compound 26, N4-(3,4-Ethylenedioxyphenyl)-5-fluoro-2-(3-furyl)-N-4-methyl-4-pyrimidineamine] | ≤ 1000 | ≤ 1000 | IC50 [3]: ≤ 1000 nM; IC50 [4]: ≤ 1000 nM; IC50 [5]: ≤ 1000 nM; IC50 [6]: ≤ 1000 nM
CN(c1ccc2c(c1)OCCO2)c1nc(-c2ccncc2)ncc1F [Compound 28, N4-(3,4-Ethylenedioxyphenyl)-5-fluoro-N-4-methyl-2-(pyridin-4-yl)-4-pyrimidineamine] | ≤ 1000 | ≤ 1000 | 
COc1ccc(N(C)c2nc(Cl)ncc2F)cc1Cl [Compound 7] | ≤ 1000 | ≤ 1000 | 
CN(c1ccc2c(c1)OCCO2)c1nc(Cl)ncc1F [Compound 1, 2-chloro-N-4-(3,4-ethylenedioxyphenyl)-5-fluoro-N-4-methyl-4-pyrimidineamine] | ≤ 1000 | ≤ 1000 | IC50 [9]: < 1000 nM; IC50 [10]: < 1000 nM; IC50 (SKMEL5 (human melanoma)): < 1000 nM; IC50 [4]: ≤ 1000 nM; IC50 [11]: < 1000 nM; IC50 [5]: ≤ 1000 nM; IC50 [6]: ≤ 1000 nM; IC50 (SKMEL28 (human melanoma)): < 1000 nM; IC50 [12]: < 1000 nM
CN(c1ccc2c(c1)OCCO2)c1nc(-c2csc3ccccc23)ncc1F [Compound 36, 2-(Benzothiophen-3-yl)-N-4-(3,4-ethylenedioxyphenyl)-5-fluoro-N-4-methyl-4-pyrimidineamine] | > 20000 | > 20000 | 

Continued, in another order:

IC50 [1] [nM] | IC50 [2] [nM] | Molecule | other results
1000 to 10000 | ≤ 10000 | CCCN(c1ccc(OC)c(Cl)c1)c1nc(Cl)ncc1F [Compound 9] | 
> 20000 | > 20000 | Cc1cc(N(C)c2nc(Cl)ncc2F)cc(C)c1Cl [Compound 11] | 
≤ 1000 | ≤ 1000 | CN(c1ccc2c(c1)OCCO2)c1nc(-c2ccsc2C=O)ncc1F [Compound 39, N4-(3,4-ethylenedioxyphenyl)-5-fluoro-2-(2-formylthien-3-yl)-N-4-methyl-4-pyrimidineamine] | 
≤ 10000 | 1000 to 10000 | CN(c1ccc2c(c1)OCCO2)c1nc(-c2cccnc2)ncc1F [Compound 27, N4-(3,4-Ethylenedioxyphenyl)-5-fluoro-N-4-methyl-2-(pyridin-3-yl)-4-pyrimidineamine] | 
≤ 10000 | 1000 to 10000 | CN(c1ccc2c(c1)OCCO2)c1nc(-c2cc[s+]([O-])c2)ncc1F (stereo not shown) [Compound 41, N4-(3,4-ethylenedioxyphenyl)-5-fluoro-N-4-methyl-2-(1-oxide-3-thienyl)-4-pyrimidineamine] | 
> 20000 | > 20000 | COc1cc(N(C)c2nc(Cl)ncc2F)cc(OC)c1OC [Compound 10] | 
≤ 10000 | 1000 to 10000 | CNCc1sccc1-c1ncc(F)c(N(C)c2ccc3c(c2)OCCO3)n1 [Compound 40, N4-(3,4-ethylenedioxyphenyl)-5-fluoro-N-4-methyl-2-(2-methylaminomethylenethien-3-yl)-4-pyrimidineamine] | 
> 20000 | > 20000 | COc1cc(OC)cc(N(C)c2nc(Cl)ncc2F)c1 [Compound 12] | 
≤ 10000 | 1000 to 10000 | COc1ncc(F)c(N(C)c2ccc3c(c2)OCCO3)n1 [Compound 15] | 
≤ 10000 | 1000 to 10000 | Cc1noc(C)c1-c1ncc(F)c(N(C)c2ccc3c(c2)OCCO3)n1 [Compound 29, 2-(3,5-Dimethylisoxazol-4-yl)-N-4-(3,4-ethylenedioxyphenyl)-5-fluoro-N-4-methyl-4-pyrimidineamine] | 
≤ 10000 | 1000 to 10000 | CN(c1ccc2c(c1)OCCO2)c1nc(-c2nccs2)ncc1F [Compound 30, N4-(3,4-Ethylenedioxyphenyl)-5-fluoro-N-4-methyl-2-(thiazol-2-yl)-4-pyrimidineamine] | 
> 20000 | 10000 to 20000 | CN(c1ccc2c(c1)OCCO2)c1nc(-c2ccc(Cl)s2)ncc1F [Compound 37, 2-(5-Chloro-2-thienyl)-N-4-(3,4-ethylenedioxyphenyl)-5-fluoro-N-4-methyl-4-pyrimidineamine] | 
